Results from US20160220524A1, “COMPOSITIONS OF SMALL MOLECULE THERAPEUTICS” (NEXMED HOLDINGS, INC., priority 2015, published 2016).
Structures can show the parent of a compound that is named as a salt.

How the values were obtained:
[1] = Method: The compounds from BCS Class 2, 3 and 4 were each formulated at 5 mg/ml in a liquid carrier of either an aqueous solution of polyethylene glycol 400 (20% PEG 400), or an aqueous solution of DDAIP-HCL (20%). […] Cohorts of three animals per group were placed in the study. On day 1, animals from each group were dosed at 30 mg/kg (6 ml/kg) by oral gavage (PO). Animals were fed at the time of dosing. Serial blood samples were collected at pre-dose, and after post-dose intervals of 30 minutes, 1 hour, 2 hours and 4 hours. The blood samples were collected into lithium heparin-coated tubes. At each time point, 0.15 ml of blood was collected via left jugular vein cannulae and processed for collection of plasma by centrifuging at approximately 2,000 rpm for approximately 10 minutes. The cellular fraction of the blood was discarded. Collection times and volume of plasma samples were recorded and tabulated. Plasma samples were transferred into clean tubes and snap frozen onto dry ice. Samples were stored at −80° C. until ready for bio-analysis by LC/MS/MS. The drug concentration was measured from supernatant after centrifugation of the dosing solution
[2] = water; cited from earlier work
P-glycoprotein (P-gp) = P-glycoprotein (P-gp) (Homo sapiens, UniProt P08183); assay: Inhibition of P-glycoprotein; type: in vitro ADME; conditions: up to 10 mM
Chain of P-glycoprotein (P-gp) (P08183 whole entry): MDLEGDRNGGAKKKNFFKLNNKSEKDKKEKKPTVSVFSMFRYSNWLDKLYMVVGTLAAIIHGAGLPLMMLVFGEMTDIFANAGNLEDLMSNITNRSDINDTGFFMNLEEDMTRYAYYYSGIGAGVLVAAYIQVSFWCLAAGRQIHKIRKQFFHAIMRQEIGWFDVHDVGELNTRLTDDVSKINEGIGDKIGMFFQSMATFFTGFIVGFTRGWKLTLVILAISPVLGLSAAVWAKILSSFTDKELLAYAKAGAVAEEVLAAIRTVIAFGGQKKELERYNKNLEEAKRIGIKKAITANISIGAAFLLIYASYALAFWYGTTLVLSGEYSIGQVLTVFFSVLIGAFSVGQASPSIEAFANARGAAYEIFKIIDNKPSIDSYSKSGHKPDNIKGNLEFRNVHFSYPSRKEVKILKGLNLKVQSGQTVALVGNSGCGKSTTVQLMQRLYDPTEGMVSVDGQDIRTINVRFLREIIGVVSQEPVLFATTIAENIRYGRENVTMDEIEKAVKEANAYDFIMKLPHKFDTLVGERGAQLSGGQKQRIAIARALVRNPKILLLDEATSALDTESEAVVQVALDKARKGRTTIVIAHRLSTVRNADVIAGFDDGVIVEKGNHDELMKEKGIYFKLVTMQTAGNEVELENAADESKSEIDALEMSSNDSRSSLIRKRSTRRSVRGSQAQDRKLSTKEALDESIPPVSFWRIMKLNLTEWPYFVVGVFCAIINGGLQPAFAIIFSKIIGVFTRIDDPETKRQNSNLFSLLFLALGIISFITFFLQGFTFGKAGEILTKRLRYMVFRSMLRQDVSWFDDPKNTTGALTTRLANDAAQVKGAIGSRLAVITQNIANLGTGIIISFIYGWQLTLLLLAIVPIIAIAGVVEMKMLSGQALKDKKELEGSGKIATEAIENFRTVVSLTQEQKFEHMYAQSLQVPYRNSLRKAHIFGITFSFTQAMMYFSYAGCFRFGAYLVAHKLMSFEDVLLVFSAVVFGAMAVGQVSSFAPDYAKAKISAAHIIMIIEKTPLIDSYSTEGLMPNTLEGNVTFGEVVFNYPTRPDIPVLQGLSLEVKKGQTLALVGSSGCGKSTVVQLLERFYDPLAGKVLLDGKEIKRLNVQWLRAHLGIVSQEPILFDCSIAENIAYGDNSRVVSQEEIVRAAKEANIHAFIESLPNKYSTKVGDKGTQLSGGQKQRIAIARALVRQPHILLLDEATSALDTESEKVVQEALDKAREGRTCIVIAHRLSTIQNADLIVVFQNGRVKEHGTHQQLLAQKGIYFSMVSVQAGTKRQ

Row | Sol. over PEG (solubility improvement fold over PEG 400) [1] [fold] | form of the 5 mg/ml formulation (suspension or solution) [1] | inhibition of P-glycoprotein (P-gp) (P-glycoprotein (P-gp)) | SMILES | Sol. H2O (reported solubility from the literature) [2] [µg/mL]
1 | >363 |  |  | NS(=O)(=O)c1cc2c(cc1Cl)N=CNS2(=O)=O [Chlorothiazide, chlorothiazide] | 300
2 |  |  |  | N[C@H]1C(O)O[C@H](CO)[C@@H](O)[C@@H]1O (stereo partly drawn) [Glucosamine, glucosamine] | 551000
3 |  | suspensions |  | O=C(CCCN1CCC(O)(c2ccc(Cl)cc2)CC1)c1ccc(F)cc1 [Haloperidol, haloperidol] | 1
4 | >446 | suspensions |  | O=C(O)c1cc(/N=N/c2ccc(S(=O)(=O)Nc3ccccn3)cc2)ccc1O [Sulfasalazine, sulfasalazine] | 10
5 |  |  | no inhibition | CCCCCCCCCCCCOC(=O)C(C)N(C)C (stereo not drawn) [DDAIP-HCL, dodecyl 2-(N,N-dimethylamino) propionate] | 
